Earlier results on one compound are cited in PMC7309225, “Synthesis, Biodistribution, and Radiation Dosimetry of a Novel mGluR5 Radioligand: ^18F-AZD9272” (ACS Chemical Neuroscience, 2020).

Like-named read-outs stand apart in the source and are kept apart here.

Data set [1] has as its system mGluR5. The arrangement: method as in PMID 29608920. The following applies: 2TC, cited from earlier work.
For data set [2], the system named is monoamine oxidase-B (MAO-B). The arrangement: method as in PMID 23541825. The note with it: human brain stem, thalamus, amygdala, cerebellum, and ventral striatum; cited from earlier work.

Consider `N#Cc1cc(F)cc(-c2nc(-c3ccc(F)cn3)no2)c1` [^11C-AZD9272], for which the VT was 6.5 mL/cm^3 in data set [1] (occipital cortex) and 18.0 mL/cm^3 in data set [1] (ventral striatum). Moreover, the “MAO-B component of binding” value in data set [2] is 90–95%.
